Measurements from PMC9388626, “STUB1 is an intracellular checkpoint for interferon gamma sensing” (Scientific Reports, 2022).

How the values were obtained:
[1] = test system: B16-F10 cells; assay: Flow cytometry, surface MHC-I on CRISPR-edited cells with IFNγ; type: cell-based, murine; conditions: for Surface MHC-I relative to Parental (Fig. 1c): Parental = 1.00
Protocol: Parental, CRISPR-edited or biologic-overexpressed tumour cells were seeded in a cell density of 60,000 (B16-F10), 150,000 (CT26), 100,000 (A375), or 200,000 (A549) per well in 12-well plate filled with 0.8 ml culture media + 10% FBS. After overnight incubation, the culture media were replaced with 1 ml fresh media supplemented with 10% FBS and the designated concentration of the recombinant mouse IFNγ (R&D Systems, #485-MI-100) or recombinant human IFNγ (R&D Systems, #285-IF-100). […]
Cells were dissociated from the wells with 0.25% trypsin (Gibco, 25200056). After rinsing with 0.5 ml PBS, each sample was stained with the LIVE/DEAD Fixable Aqua dead cell staining solution (Life Technologies, L34957) in 100 µl PBS (1:1000 dilution) for 15 min at 4 °C. After rinsing with 2 × 0.5 ml PBS, each sample was stained with the corresponding primary antibody-dye conjugates diluted in 100 µl Pharmingen stain buffer (BD Biosciences, #554657). After 1 h staining at 4 °C, the cells were rinsed with 2 × 2 ml Pharmingen stain buffer and fixed with 4.21% (w/w) formaldehyde (BD Biosciences, #554655). Cells were analyzed on LSRFortessa X-20 (BD Biosciences) with appropiate fluorescence compensation. The data were analyzed using FlowJo. Cells were gated based on FSC and SSC. Single cells were selected using FSC-A and FSC-H and viable cells were selected using LIVE/DEAD signal. Primary antibodies used were: H-2K^b/H-2D^b (FITC, Biolegend, #114606, 1:50 dilution), HLA-A,B,C (FITC, Biolegend, #311404, 1:100 dilution), mouse IFNGR1 (PE, Invitrogen, #12-1191-82, 1:50 dilution), human IFNGR1 (PE, Miltenyi, #130-125-851, 1:50 dilution), mouse IL1R1 (APC, Biolegend, #113509, 1:20 dilution), mouse IL6R (APC, Biolegend, #115812, 1:20 dilution), mouse IFNAR1 (APC, Biolegend, #127314, 1:20 dilution), and mouse GP130 (PE, Biolegend, #149404, 1:100 dilution).

[2] = test system: B16-F10 cells; assay: Western blot, protein expression after 24 h IFNγ; type: cell-based, murine
Protocol: Parental, CRISPR-edited or biologic-overexpressed tumour cells were seeded in a cell density of 60,000 (B16-F10), 150,000 (CT26), 100,000 (A375), or 200,000 (A549) per well in 12-well plate filled with 0.8 ml culture media + 10% FBS. After overnight incubation, the culture media were replaced with 1 ml fresh media supplemented with 10% FBS and the designated concentration of the recombinant mouse IFNγ (R&D Systems, #485-MI-100) or recombinant human IFNγ (R&D Systems, #285-IF-100). The cells were stimulated with the cytokine for 24 h before they were harvested by trypsinization for flow cytometry, western blot, or qPCR analysis (6 h treatment).
Cells were dissociated from the wells with 0.25% trypsin (Gibco, 25200056). After rinsing with 0.5 ml PBS, the cell pellets were lysed with chilled cell lysis buffer (Cell Signaling Technology, #9803) supplemented with Halt protease inhibitor cocktail (Thermo Scientific, #78430) and phosphatase inhibitor (Sigma-Aldrich, # 4906837001) for 30 min with intermittent vortexing. The lysate was transferred into PCR-strip tubes and sonicated in a chilled water bath sonicator (QSonica). Lysates were clarified by centrifugation at 15,000 rpm at 4 °C for 15 min. Protein concentration was determined using BCA protein assay kit (Pierce, #23225). The lysates were mixed with LDS sample buffer (Life Technologies, NP0008) and sample reducing agent (Life Technologies, NP0009), followed by heating at 70 °C for 10 min to fully denature the protein. […] Membrane blots were pre-stained with total protein stain (LI-COR, # 926-11016) and imaged with Odyssey CLx. […] The blots were finally probed, for overnight at 4 °C, with the appropriate primary antibodies diluted in Intercept (TBS) blocking buffer supplemented with 0.1% (v/v) Tween-20, followed by the secondary antibodies (IRDye 800CW donkey anti-rabbit or anti-mouse IgG, LI-COR) for 1 h at room temperature. Fluorescent signals were imaged and quantified using Odyssey CLx and Image Studio v5.0. Primary antibodies used were: STUB1/CHIP (Cell Signaling Technology, #2080, 1:2000 dilution), STAT1 (Cell Signaling Technology, #14995, 1:10,000 dilution), phospho-Tyr701-STAT1 (Cell Signaling Technology, #9167, 1:2000 dilution), STAT2 (Cell Signaling Technology, #72604, 1:2000 dilution), IRF1 (Cell Signaling Technology, #8478, 1:2000 dilution), PSMB8 (Cell Signaling Technology, #13635, 1:2000 dilution), PSMB9 (Abcam, ab184172, 1:10,000 dilution), and PSMB10 (Abcam, ab183506, 1:10,000 dilution).

## gStub1 #1 (guide GCATTGCTAAGAAGAAGCGC; chemistry not given here)
[1]; IFNg 0.01 ng/ml, replicate 1
  Surface MHC-I (Fig. 1b): 389
  Surface MHC-I relative to Parental (Fig. 1c): 1.67
[1]; IFNg 0.01 ng/ml, replicate 2
  Surface MHC-I (Fig. 1b): 629
  Surface MHC-I relative to Parental (Fig. 1c): 1.88
[1]; IFNg 0.01 ng/ml, replicate 3
  Surface MHC-I (Fig. 1b): 890
  Surface MHC-I relative to Parental (Fig. 1c): 2.53
[1]; IFNg 0.01 ng/ml, replicate 4
  Surface MHC-I (Fig. 1b): 1203
  Surface MHC-I relative to Parental (Fig. 1c): 4.12
[1]; IFNg 0.03 ng/ml, replicate 1
  Surface MHC-I (Fig. 1b): 1830
  Surface MHC-I relative to Parental (Fig. 1c): 6.85
[1]; IFNg 0.03 ng/ml, replicate 2
  Surface MHC-I (Fig. 1b): 1489
  Surface MHC-I relative to Parental (Fig. 1c): 3.84
[1]; IFNg 0.03 ng/ml, replicate 3
  Surface MHC-I (Fig. 1b): 2317
  Surface MHC-I relative to Parental (Fig. 1c): 4.36
[1]; IFNg 0.03 ng/ml, replicate 4
  Surface MHC-I (Fig. 1b): 3040
  Surface MHC-I relative to Parental (Fig. 1c): 6.59
[1]; IFNg 0.10 ng/ml, replicate 1
  Surface MHC-I (Fig. 1b): 1622
  Surface MHC-I relative to Parental (Fig. 1c): 4.52
[1]; IFNg 0.10 ng/ml, replicate 2
  Surface MHC-I (Fig. 1b): 2825
  Surface MHC-I relative to Parental (Fig. 1c): 4.07
[1]; IFNg 0.10 ng/ml, replicate 3
  Surface MHC-I (Fig. 1b): 4165
  Surface MHC-I relative to Parental (Fig. 1c): 3.06
[1]; IFNg 0.10 ng/ml, replicate 4
  Surface MHC-I (Fig. 1b): 5343
  Surface MHC-I relative to Parental (Fig. 1c): 3.53
[1]; IFNg 0.30 ng/ml, replicate 1
  Surface MHC-I (Fig. 1b): 3870
  Surface MHC-I relative to Parental (Fig. 1c): 4.44
[1]; IFNg 0.30 ng/ml, replicate 2
  Surface MHC-I (Fig. 1b): 3946
  Surface MHC-I relative to Parental (Fig. 1c): 3.12
[1]; IFNg 0.30 ng/ml, replicate 3
  Surface MHC-I (Fig. 1b): 5512
  Surface MHC-I relative to Parental (Fig. 1c): 2.33
[1]; IFNg 0.30 ng/ml, replicate 4
  Surface MHC-I (Fig. 1b): 7772
  Surface MHC-I relative to Parental (Fig. 1c): 2.83
[1]; IFNg 1.00 ng/ml, replicate 1
  Surface MHC-I (Fig. 1b): 6610
  Surface MHC-I relative to Parental (Fig. 1c): 2.73
[1]; IFNg 1.00 ng/ml, replicate 2
  Surface MHC-I (Fig. 1b): 4959
  Surface MHC-I relative to Parental (Fig. 1c): 2.67
[1]; IFNg 1.00 ng/ml, replicate 3
  Surface MHC-I (Fig. 1b): 6900
  Surface MHC-I relative to Parental (Fig. 1c): 2.19
[1]; IFNg 1.00 ng/ml, replicate 4
  Surface MHC-I (Fig. 1b): 9888
  Surface MHC-I relative to Parental (Fig. 1c): 2.56
[1]; IFNg Nil, replicate 1
  Surface MHC-I (Fig. 1b): 267
  Surface MHC-I relative to Parental (Fig. 1c): 0.97
[1]; IFNg Nil, replicate 2
  Surface MHC-I (Fig. 1b): 322
  Surface MHC-I relative to Parental (Fig. 1c): 1.05
[1]; IFNg Nil, replicate 3
  Surface MHC-I (Fig. 1b): 345
  Surface MHC-I relative to Parental (Fig. 1c): 1.07
[1]; IFNg Nil, replicate 4
  Surface MHC-I (Fig. 1b): 296
  Surface MHC-I relative to Parental (Fig. 1c): 1.15
[2]; IFNg 0.01 ng/ml
  PSMB8 (Fig. 1e): 171356
  PSMB9 (Fig. 1e): 214373
  PSMB10 (Fig. 1e): 83490
  STAT1 (Fig. 1e): 156019
[2]; IFNg 0.03 ng/ml
  PSMB8 (Fig. 1e): 202198
  PSMB9 (Fig. 1e): 947224
  PSMB10 (Fig. 1e): 557217
  STAT1 (Fig. 1e): 430481
[2]; IFNg 0.10 ng/ml
  PSMB8 (Fig. 1e): 232103
  PSMB9 (Fig. 1e): 2077116
  PSMB10 (Fig. 1e): 2055449
  STAT1 (Fig. 1e): 714350
[2]; IFNg 0.30 ng/ml
  PSMB8 (Fig. 1e): 334603
  PSMB9 (Fig. 1e): 3663399
  PSMB10 (Fig. 1e): 3429074
  STAT1 (Fig. 1e): 1243340
[2]; IFNg 1.00 ng/ml
  PSMB8 (Fig. 1e): 529221
  PSMB9 (Fig. 1e): 4935730
  PSMB10 (Fig. 1e): 4476630
  STAT1 (Fig. 1e): 1537016
[2]; IFNg Nil
  PSMB8 (Fig. 1e): 173338
  PSMB9 (Fig. 1e): 17374
  PSMB10 (Fig. 1e): 18816
  STAT1 (Fig. 1e): 22848
